From PMC8424217 (The Journal of Biological Chemistry, 2021)
Entries after “also recorded” stand apart in the source; their conditions may differ. Peptide text beside a SMILES is read from it. * marks the point of attachment. Palmitoyl = CCCCCCCCCCCCCCCC(=O)*

How the values were obtained:
[1] = Solution NMR conformational analysis in DPC micelles; format: physicochemical; conditions: pH 5.5, 25 °C, restrained MD calculations
Description: Samples for NMR spectroscopy were prepared by dissolving the appropriate amount of peptide in 0.54 ml of ^1H2O (pH 5.5), 0.06 ml of ^2H2O to obtain a final DPC-d38 concentration of 2 mM and 200 mM. NMR spectra were recorded on a Varian INOVA 700 MHz spectrometer equipped with a z-gradient 5 mm triple-resonance probe head. All spectra were recorded at a temperature of 25 °C and were calibrated relative to TSP (0.00 ppm) as internal standard. One-dimensional (1D) NMR spectra were recorded in the Fourier mode with quadrature detection. The water signal was suppressed by gradient echo ([70]). Two dimensional (2D) DQF-COSY ([71], [72]), TOCSY ([73]), and NOESY ([74]) spectra were recorded in the phase-sensitive mode as described ([75]). Data block sizes were 2048 addresses in t2 and 512 equidistant t1 values. […] The qualitative and quantitative analyses of DQF-COSY, TOCSY, and NOESY spectra were obtained using the interactive program package XEASY ([76]). Complete ^1H NMR chemical shift assignments were effectively achieved for hUT-Pep2 and [Trp^1, Leu^2]hUT-Pep3 according to the Wüthrich procedure ([77]) via the usual systematic application of DQF-COSY, TOCSY, and NOESY experiments with the support of the XEASY software package (Tables S1 and S3). ^3JαN coupling constants were measured by 1D proton and DQF-COSY spectra. […]

hUT = target: T1, hUT (Homo sapiens, UniProt Q9UKP6); test: ERK1/2 phosphorylation, BRET-based biosensor, HEK 293-hUT cells; format: cell-based; set-up: expressed in transfected cells; conditions: concentration-response
T1 sequence (Q9UKP6 1-389): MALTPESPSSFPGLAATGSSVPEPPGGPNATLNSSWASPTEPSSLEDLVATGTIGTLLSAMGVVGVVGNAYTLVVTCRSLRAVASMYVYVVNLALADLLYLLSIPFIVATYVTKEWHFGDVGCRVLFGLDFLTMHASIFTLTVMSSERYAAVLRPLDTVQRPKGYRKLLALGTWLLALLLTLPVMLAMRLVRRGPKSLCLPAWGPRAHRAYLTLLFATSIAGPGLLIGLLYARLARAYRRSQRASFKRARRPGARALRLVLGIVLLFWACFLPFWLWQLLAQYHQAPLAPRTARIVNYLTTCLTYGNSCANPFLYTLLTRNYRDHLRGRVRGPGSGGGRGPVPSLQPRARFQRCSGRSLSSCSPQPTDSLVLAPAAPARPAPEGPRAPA
Description: HEK 293-hUT cells were grown in DMEM culture media supplemented with 10% foetal bovine serum, HEPES, sodium pyruvate, and G418 (200 μg mL^−1). Passages were performed when cells reached 80% of confluency. Cells were initially plated in 96-well plates at a density of 10,000 cells/well. The following day, the medium is replaced with DMEM culture media supplemented with 2.5% foetal bovine serum (FBS), and 12 h later, cells were transiently transfected with 25 ng/well of a Gq-polycistronic, 25 ng/well of a G12-polycistronic BRET sensor, 25 ng/well of a G13-polycistronic BRET sensor, 2.5 ng/well pIRESB RLucII-ERK-NLS-GFP BRET sensor, 2.5 ng β-arrestin 1-polycistronic BRET sensor, or 2.5 ng β-arrestin 2-polycistronic BRET sensor using Lipofectamine2000 at a ratio of 3:1 (Lipofectamine/plasmid DNA) in serum-free Opti-MEM ([44], [81]). […] Then, to evaluate Gq and G12 activation, 10 μl of a 1/20 dilution (diluted before use) of coelenterazine 400A (stock at 1 mM in ethanol) in Kreb's buffer and 10 μl of the 10× appropriate concentration of peptide were added, and the luminescence was evaluated with an Infinite M1000 PRO. […] Readings were performed after 5 min using an Infinite M1000 PRO. […] BRET ratio was determined by calculating the ratio of the light emitted by GFP10 over the light emitted by the RlucII. […]

Compound | conformation by NMR [1] | ERK1/2 phosphorylation (BRET) versus hUII (hUT)
CCCCCCCCCCCCCCCC(=O)N[C@@H](Cc1c[nH]c2ccccc12)C(=O)N[C@@H](CC(C)C)C(=O)N[C@@H](CO)C(=O)N[C@@H](CCC(N)=O)C(=O)N[C@@H](CCCNC(=N)N)C(=O)N[C@@H](C)C(=O)N[C@@H](CO)C(=O)N[C@@H](Cc1ccccc1)C(=O)N[C@@H](CCCCN)C(=O)N[C@@H](CCCNC(=N)N)C(=O)N[C@@H](C)C(=O)N[C@@H](CCCNC(=N)N)C(=O)N[C@@H](CCCNC(=N)N)C(N)=O [[Trp^1, Leu^2]hUT-Pep3] (Palmitoyl-WLSQRASFKRARR-NH2) | high tendency of [Trp^1, Leu^2]hUT-Pep3 to fold into a helix | lower potency and efficacy than hUII
CCCCCCCCCCCCCCCC(=O)N[C@@H](CCCNC(=N)N)C(=O)N1CCC[C@H]1C(=O)N[C@@H](CC(C)C)C(=O)N[C@@H](CC(=O)O)C(=O)N[C@H](C(=O)N[C@H](C(=O)N[C@@H](CCC(N)=O)C(=O)N[C@@H](CCCNC(=N)N)C(=O)N1CCC[C@H]1C(=O)N[C@@H](CCCCN)C(=O)NCC(=O)N[C@@H](Cc1ccc(O)cc1)C(N)=O)C(C)C)[C@@H](C)O [hUT-Pep2] (Palmitoyl-RPLDTVQRPKGY-NH2) | two type I β-turns along residues 1–4 and 3–6 and three distorted (type IV) β-turns along residues 4–7, 5–8, and 6–9 | lower potency and efficacy than hUII; also recorded: partial agonist
